Reference: patent EP2426213A1, “Marker for sunitnib resistance formation” (Max-Planck-Gesellschaft zur Förderung der Wissenschaften …, priority 2010, dated 2012)

Columns and labels:
Type in all cases: cell-based, Human
CAKI1 = test: Propidium iodide (PI) apoptosis assay, LD50 after 72 h
Protocol: (§1) Human kidney carcinoma and melanoma cell lines A498, A704, CAKI1, CAKI2, WM115, WM266-4 and C8161 were provided by M. Herlyn (Wistar Institute, Philadephia) and R. Gillies (Arizona Cancer Center, Phoenix) or purchased from the American Tissue Culture Collection. CAKI1, CAKI2 and C8161 cells were cultured in Dulbecco's modified Eagle's medium (DMEM; Gibco Life Technologies Inc.), supplemented with 10 % fetal calf serum (FCS), 2 mM glutamine, and 1 % nonessential amino acids. A498, A704 and WM115 cells were cultured in Minimum Essential Medium (MEM; Gibco Life Technologies Inc.) supplemented with 10 % FCS, 2 mM glutamine, and 1 % (v/v) nonessential amino acids. WM266-4 cells were cultured in RPMI medium (Gibco Life Technologies Inc.), supplemented with 10 % FCS and 2 mM glutamine.
(§2) The cells were treated with Sunitinb concentrations between 2.5 µM and 20 µM for 72 h and apoptosis was determined according to Nicoletti's procedure (Riccardi and Nicoletti 2006). BD CellQuest Pro software (Becton Dickinson) for subG1 peak detection was used to determine the extent of the apoptotic cell formation. Statistical evaluation of the half maximal lethal dose-(LD50) values was assessed by using SigmaPlot (Systat Software, Inc., version 10).

A498 [1] = test: as above
Protocol: as §1, §2

WM266-4^NDes [2] = test: Apoptosis LD50 in Sorafenib desensitized cell line
Protocol: as §2
(§3) To determine the drug specificity of the selection process, we also established Sorafenib selected polyclonal cell populations using the same conditions.

C8161^NDes [3] = test: Apoptosis LD50 in Sorafenib desensitized cell line
Protocol: as §2, §3

WM115^NDes [4] = test: Apoptosis LD50 in Sorafenib desensitized cell line
Protocol: as §2, §3

WM266-4 [5] = test: Propidium iodide (PI) apoptosis assay, LD50 after 72 h; conditions: WM266-4 parental; Sunitinib 72 h; apoptosis (subG1)
Protocol: as §1, §2

C8161 [6] = test: as above; conditions: C8161 parental; Sunitinib 72 h; apoptosis (subG1)
Protocol: as §1, §2

WM115 [7] = test: as above; conditions: WM115 parental; Sunitinib 72 h; apoptosis (subG1)
Protocol: as §1, §2

A704 = test: as above; conditions: A704 parental, Sunitinib 2.5-20 µM, apoptosis (subG1)
Protocol: as §1, §2

A498^SDes cells = test: Boyden Chamber migration assay after siRNA knock-down and Sunitinib treatment; conditions: Sunitinib 12 h
Protocol: (§4) The cells were seeded with equal numbers in 6-Well plates and transfected with 40 pmol siRNA (PRKX (AMBION, cat. no.: s224410, s224411, s11195), TTBK2 (AMBION, cat. no.: s44812, s44813, s44814), RSK4/RPS6KA6 (AMBION, cat. no.: s223751, s223752, s223753) and 5 µl lipofectamine RNAiMAX (Invitrogen) following the manufacturers' protocols. To determine the knock-down efficiency, semi-quantitative RT-PCR was performed (Primer list, see table 1). Table 1: Primer used for RT-PCR
(§5) Apoptotic cell formation was monitored according to Nicoletti's procedure.
(§6) Then, cells were seeded onto a membrane with 8 µm pores of a modified Boyden chamber (Schubert and Weiss) containing 500 µL serum-free medium. 10 % FCS served as chemo-attractant.

parental A498 cells = test: as above; conditions: Sunitinib 12 h
Protocol: as §4, §5, §6

WM115^SDes [8] = test: Increased Sunitinib-induced apoptosis (AdA) after siRNA knock-down, PI assay; conditions: RSK4 reduction by siRNA vs control siRNA, Sunitinib 72 h
Protocol: as §4, §5

A498^SDes [9] = test: as above; conditions: Sunitinib 72 h
Protocol: as §4, §5
(§7) To analyze the increased Sunitinib-induced apoptosis (AdA) upon gene-expression reduction compared to the control siRNA, apoptosis was determined using PI-Assays after 72 h. Gene knock-downs ranged between 50% and 90%, as estimated by scanning densitometry (Fig. 4A). […] Like for PRKX and TTBK2, the […] in gene-expression strongly correlated with the degree of desensitization.

WM266-4^SDes [10] = test: as above; conditions: Sunitinib 72 h
Protocol: as §4, §5, §7

A498 [11] = test: as above; conditions: Sunitinib 72 h
Protocol: as §4, §5, §7

WM266-4^NDes [12] = test: as above; conditions: Sunitinib 72 h
Protocol: as §4, §5, §7

WM266-4 [13] = test: as above; conditions: Sunitinib 72 h
Protocol: as §4, §5, §7

C8161^NDes [14] = test: as above; conditions: C8161NDes, Sunitinib 72 h
Protocol: as §4, §5, §7

C8161 [15] = test: as above; conditions: Sunitinib 72 h
Protocol: as §4, §5, §7

C8161^Sdes [16] = test: as above; conditions: Sunitinib 72 h
Protocol: as §4, §5, §7

WM115 [17] = test: as above; conditions: Sunitinib 72 h
Protocol: as §4, §5, §7

WM115^NDes [18] = test: as above; conditions: Sunitinib 72 h
Protocol: as §4, §5, §7

A704^NDes = test: Apoptosis LD50 in Sorafenib selected cell line
Protocol: as §2, §3

A498^SDes [19] = test: Apoptosis LD50 in Sunitinib desensitized cell line; conditions: A498^SDes compared to parental cell line; 72 h
Protocol: as §2

WM266-4^SDes [20] = test: Apoptosis LD50 in Sunitinib desensitized cell line; conditions: WM266-4^SDes compared to parental cell line; 72 h
Protocol: as §2

C8161^Sdes [21] = test: Apoptosis LD50 in Sunitinib desensitized cell line; conditions: C8161^Sdes compared to parental cell line; 72 h
Protocol: as §2

WM115^SDes [22] = test: Apoptosis LD50 in Sunitinib desensitized cell line; conditions: WM115^SDes compared to parental cell line; 72 h
Protocol: as §2

A704^SDes = test: Apoptosis LD50 in Sunitinib desensitized cell line; conditions: A704^SDes compared to parental cell line; 72 h
Protocol: as §2

[23] = PRKX reduction by siRNA vs control siRNA
[24] = RSK4 reduction by siRNA vs control siRNA
[25] = TTBK2 reduction by siRNA vs control siRNA

SMILES: CNC(=O)c1cc(Oc2ccc(NC(=O)Nc3ccc(Cl)c(C(F)(F)F)c3)cc2)ccn1 [Sorafenib]
- Sorafenib sensitivity (apoptosis) (CAKI1; parental CAKI1): insensitivity
- Sorafenib sensitivity (apoptosis) (A498 [1]; parental A498): insensitivity
- decreased sensitivities against Sorafenib compared to the parental cell lines (WM266-4^NDes [2]; WM266-4^NDes, Sorafenib LD50): 130%
- decreased sensitivities against Sorafenib compared to the parental cell lines (C8161^NDes [3]; C8161^NDes, Sorafenib LD50): 249%
- decreased sensitivities against Sorafenib compared to the parental cell lines (WM115^NDes [4]; WM115^NDes, Sorafenib LD50): 197%

SMILES: CCN(CC)CCNC(=O)c1c(C)[nH]c(/C=C2\C(=O)Nc3ccc(F)cc32)c1C [Sunitinib]
- LD50-values (CAKI1; CAKI1 parental, Sunitinib 72 h, apoptosis (subG1)): 16.6 ± 1.5 µM
- LD50-values (A498 [1]; A498 parental, Sunitinib 72 h, apoptosis (subG1)): 12.4 ± 0.4 µM
- LD50-values (WM266-4 [5]): 6.4 ± 1.3 µM
- LD50-values (C8161 [6]): 15.5 ± 0.7 µM
- LD50-values (WM115 [7]): 3.6 ± 0.9 µM
- LD50-values (A704): 2.2 ± 0.4 µM
- increase of the Sunitinib LD50-values (WM266-4^NDes [2]; WM266-4^Ndes compared to parental): 168%
- decrease in Sunitinib sensitivity (C8161^NDes [3]; C8161^Ndes compared to parental): 77%
- increase of the Sunitinib LD50-values (WM115^NDes [4]; WM115^Ndes compared to parental): 249%
- increased Sunitinib inhibitory effect (migration) (A498^SDes cells; PRKX reduction by siRNA): 76.4 ± 4.1%
- increased Sunitinib anti-migratory effect (A498^SDes cells; RSK4 reduction by siRNA): 8.6 ± 3.1%
- inhibition of migration compared to the scrambled siRNA control (parental A498 cells; PRKX reduction by siRNA): 64.4 ± 11.1%
- increase in Sunitinib inhibition of migration (parental A498 cells; RSK4 reduction by siRNA): 27.3 ± 2.7%
- increase in Sunitinib inhibition of migration (parental A498 cells; TTBK2 reduction by siRNA): 37.1 ± 1.0%
- increased Sunitinib-induced apoptosis (AdA) (WM115^SDes [8]): 14.1 ± 3.2%
- increased Sunitinib-induced apoptosis (AdA) (A498^SDes [9]; PRKX reduction by siRNA vs control siRNA, A498SDes): 14.7 ± 4.4%
- increased Sunitinib-induced apoptosis (AdA) (A498^SDes [9]; RSK4 reduction by siRNA vs control siRNA, A498^SDes): 14.7 ± 4.4%
- increased Sunitinib-induced apoptosis (AdA) (A498^SDes [9]; TTBK2 reduction by siRNA vs control siRNA, A498^SDes): 13.6 ± 0.4%
- increased Sunitinib-induced apoptosis (AdA) (WM266-4^SDes [10]; PRKX reduction by siRNA vs control siRNA, WM266-4SDes): 34.1 ± 4.9%
- increased Sunitinib-induced apoptosis (AdA) (WM266-4^SDes [10]; RSK4 reduction by siRNA vs control siRNA, WM266-4^SDes): 20.2 ± 5.7%
- increased Sunitinib-induced apoptosis (AdA) (WM266-4^SDes [10]; TTBK2 reduction by siRNA vs control siRNA, WM266-4SDes): 16.8 ± 7.7%
- increased Sunitinib-induced apoptosis (AdA) (A498 [11]; [23]): 6.5 ± 3.2%
- increased Sunitinib-induced apoptosis (AdA) (A498 [11]; [24]): 6.5 ± 3.2%
- increased Sunitinib-induced apoptosis (AdA) (A498 [11]; [25]): 7.1 ± 3.1%
- increased Sunitinib-induced apoptosis (AdA) (WM266-4^NDes [12]; [23]): 23.0 ± 5.4%
- increased Sunitinib-induced apoptosis (AdA) (WM266-4^NDes [12]; [24]): 5.3 ± 5.2%
- increased Sunitinib-induced apoptosis (AdA) (WM266-4^NDes [12]; [25]): 12.7 ± 2.5%
- increased Sunitinib-induced apoptosis (AdA) (WM266-4 [13]; [23]): 22.4 ± 6.7%
- increased Sunitinib-induced apoptosis (AdA) (WM266-4 [13]; [24]): 7.1 ± 2.0%
- increased Sunitinib-induced apoptosis (AdA) (WM266-4 [13]; [25]): 5.1 ± 2.0%
- increased Sunitinib-induced apoptosis (AdA) (C8161^NDes [14]; [23]): 18.1 ± 8.8%
- increased Sunitinib-induced apoptosis (AdA) (C8161^NDes [14]; [24]): 6.0 ± 2.1%
- increased Sunitinib-induced apoptosis (AdA) (C8161^NDes [14]; [25]): -2.2 ± 6.8%
- increased Sunitinib-induced apoptosis (AdA) (C8161 [15]; [23]): 19.4 ± 2.4%
- increased Sunitinib-induced apoptosis (AdA) (C8161 [15]; [24]): 12.5 ± 3.6%
- increased Sunitinib-induced apoptosis (AdA) (C8161 [15]; [25]): 7.3 ± 4.8%
- increased Sunitinib-induced apoptosis (AdA) (C8161^Sdes [16]; PRKX reduction by siRNA vs control siRNA, C8161SDes): 35.8 ± 9.9%
- increased Sunitinib-induced apoptosis (AdA) (C8161^Sdes [16]; RSK4 reduction by siRNA vs control siRNA, C8161SDes): 11.9 ± 4.8%
- increased Sunitinib-induced apoptosis (AdA) (C8161^Sdes [16]; TTBK2 reduction by siRNA vs control siRNA, C8161^SDes): 20.3 ± 8.1%
- increased Sunitinib-induced apoptosis (AdA) (WM115 [17]; [23]): 3.2 ± 0.4%
- increased Sunitinib-induced apoptosis (AdA) (WM115 [17]; [24]): 4.8 ± 2.3%
- increased Sunitinib-induced apoptosis (AdA) (WM115 [17]; [25]): 4.8 ± 1.5%
- increased Sunitinib-induced apoptosis (AdA) (WM115^NDes [18]; PRKX reduction by siRNA vs control siRNA, WM115NDes): 3.9 ± 4.8%
- increased Sunitinib-induced apoptosis (AdA) (WM115^NDes [18]; RSK4 reduction by siRNA vs control siRNA, WM115^NDes): 5.6 ± 3.8%
- increased Sunitinib-induced apoptosis (AdA) (WM115^NDes [18]; TTBK2 reduction by siRNA vs control siRNA, WM115NDes): 11.7 ± 4.4%
- Sunitinib LD50-value (A704^NDes; A704^NDes (Sorafenib selected)): 9.0 ± 2.5 µM
- increased Sunitinib LD50-value (A704^NDes; A704^NDes in comparison to the parental cell line): 419%
- increase of the LD50-values (A498^SDes [19]): 122%
- increase of the LD50-values (WM266-4^SDes [20]): 174%
- increase of the LD50-values (C8161^Sdes [21]): 112%
- increase of the LD50-values (WM115^SDes [22]): 301%
- increase of the LD50-values (A704^SDes): 344%
